These results are taken from patent publication US20200140489A1 (priority 2013, published 2020).

In test [1] the target is AgrC-I (Staphylococcus aureus, UniProt O07911). It is filed as cell-based, S. aureus. Conditions: for IC50: read-out: AgrC-I IC50, fluorescence reporter strain; for AgrC-I % Activation: fluorescence of treated vs non-treated wild-type bacteria, lower % activation = more potent inhibition.
For test [2], the target named is T1, AgrC-II (Staphylococcus aureus, UniProt O33587). It is filed as cell-based, S. aureus. Conditions: for IC50: read-out: AgrC-II IC50, fluorescence reporter strain; for AgrC-II % Activation: fluorescence of treated vs non-treated wild-type bacteria, lower % activation = more potent inhibition.
T1 sequence (O33587 1-437): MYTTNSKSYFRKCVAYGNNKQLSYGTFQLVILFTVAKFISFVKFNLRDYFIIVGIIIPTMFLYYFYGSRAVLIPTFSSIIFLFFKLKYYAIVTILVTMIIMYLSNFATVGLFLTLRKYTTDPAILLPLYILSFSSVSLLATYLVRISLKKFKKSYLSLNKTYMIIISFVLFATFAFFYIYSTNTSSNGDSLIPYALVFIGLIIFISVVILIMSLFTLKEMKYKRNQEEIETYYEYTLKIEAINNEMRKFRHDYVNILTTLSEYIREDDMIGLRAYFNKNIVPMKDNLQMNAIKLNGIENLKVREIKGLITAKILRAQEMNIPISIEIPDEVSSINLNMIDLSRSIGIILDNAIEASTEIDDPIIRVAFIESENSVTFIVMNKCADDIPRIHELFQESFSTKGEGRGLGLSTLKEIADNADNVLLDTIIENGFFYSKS
Test [3] deals with AgrC-III (Staphylococcus aureus, UniProt O33590). It counts as cell-based, S. aureus. The settings on record: for AgrC-III activity: gfp/fluorescence assay; for IC50: read-out: AgrC-III IC50, fluorescence reporter strain; for AgrC-III % Activation: fluorescence of treated vs non-treated wild-type bacteria, lower % activation = more potent inhibition.
Chain of AgrC-III (O33590 1-425): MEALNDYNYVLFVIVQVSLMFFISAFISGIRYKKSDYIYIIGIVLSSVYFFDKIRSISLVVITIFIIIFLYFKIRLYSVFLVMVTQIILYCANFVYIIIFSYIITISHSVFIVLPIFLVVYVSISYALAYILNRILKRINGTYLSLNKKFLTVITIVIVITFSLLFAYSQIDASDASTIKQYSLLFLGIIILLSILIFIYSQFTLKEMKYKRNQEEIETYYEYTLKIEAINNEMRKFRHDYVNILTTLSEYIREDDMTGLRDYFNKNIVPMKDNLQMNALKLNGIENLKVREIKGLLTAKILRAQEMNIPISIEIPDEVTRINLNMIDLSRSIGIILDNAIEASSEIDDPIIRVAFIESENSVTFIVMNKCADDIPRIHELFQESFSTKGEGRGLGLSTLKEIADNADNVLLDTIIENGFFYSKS
Test [4] has as its target AgrC-IV (Staphylococcus aureus, UniProt Q309Z2). It is filed as cell-based, S. aureus. Conditions: for AgrC-IV activity: gfp/fluorescence assay; for IC50: read-out: AgrC-IV IC50; for AgrC-IV % Activation: fluorescence of treated vs non-treated wild-type bacteria, lower % activation = more potent inhibition.
Test [5] addresses T1, AgrC-II. The test is described as follows: Hemolysis assay, wild-type group-II strain RN6923, rabbit red blood cells. Conditions: read-out: AgrC-II IC50; hemolysis assay; 200 fM − 10 μM.
The mark [6] stands for this setting: second-generation analogues, 200 fM − 10 μM.
[7] abbreviates: second-generation analogues, fluorescence reporter strain, 200 fM − 10 μM.
Where [8] appears, read: AIPs tested over 200 fM − 10 μM or (b1) 2.5 pM − 10 μM, triplicate.
[9] abbreviates: fluorescence reporter strain, AIPs tested over 200 fM − 10 μM or (b1) 2.5 pM − 10 μM, triplicate.

Like-named read-outs stand apart in the source and are kept apart here. Positions of bridges follow the written chain, without caps; N, C: chain ends. Non-standard residues stand in square brackets, D forms with d. Residues, ends and D or L forms follow the SMILES beside them. *: point of attachment. X1 = CC[C@@H](C)C1NC(=O)CN(CC(=O)*)C1=O; NMeI = CC[C@H](C)[C@H](NC)C(=O)O; NMeD = CN[C@@H](CC(=O)O)C(=O)O; NMeL = CN[C@@H](CC(C)C)C(=O)O; Nleu = CC(C)CNCC(=O)O; Aoc = NCCCCCCCC(=O)O; GABA = NCCCC(=O)O

Chain of AgrC-I (O07911 1-430): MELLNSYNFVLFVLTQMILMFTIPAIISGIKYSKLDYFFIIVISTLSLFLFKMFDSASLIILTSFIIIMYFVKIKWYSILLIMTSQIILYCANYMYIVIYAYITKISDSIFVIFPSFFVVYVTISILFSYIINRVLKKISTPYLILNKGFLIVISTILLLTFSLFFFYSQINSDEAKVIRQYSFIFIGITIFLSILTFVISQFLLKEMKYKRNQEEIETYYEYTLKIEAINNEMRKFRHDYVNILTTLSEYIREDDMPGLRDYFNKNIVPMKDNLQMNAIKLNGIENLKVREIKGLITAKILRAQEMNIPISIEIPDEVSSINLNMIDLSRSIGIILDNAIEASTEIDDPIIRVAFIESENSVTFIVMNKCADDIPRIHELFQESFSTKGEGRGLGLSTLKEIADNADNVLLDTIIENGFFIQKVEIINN
Chain of AgrC-IV (Q309Z2 1-430): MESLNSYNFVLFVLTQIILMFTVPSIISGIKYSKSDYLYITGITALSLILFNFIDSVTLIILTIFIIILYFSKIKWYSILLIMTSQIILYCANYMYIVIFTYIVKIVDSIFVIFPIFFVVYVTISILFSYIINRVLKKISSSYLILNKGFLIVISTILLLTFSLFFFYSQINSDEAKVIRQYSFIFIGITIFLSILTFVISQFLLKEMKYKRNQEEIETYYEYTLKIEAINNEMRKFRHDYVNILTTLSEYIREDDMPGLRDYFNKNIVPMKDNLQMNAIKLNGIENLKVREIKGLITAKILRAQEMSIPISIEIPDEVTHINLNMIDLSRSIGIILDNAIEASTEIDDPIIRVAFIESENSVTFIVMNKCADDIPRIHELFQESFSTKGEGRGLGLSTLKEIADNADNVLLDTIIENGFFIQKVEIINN

What is called IC50 is the concentration at which inhibition is half-maximal. Turning to `CC[C@H](C)[C@H](NC(=O)[C@H](C)N)C(=O)N[C@@H](CC(N)=O)C(=O)N[C@H]1CSC(=O)[C@H](CC(C)C)NC(=O)[C@H](CC(C)C)NC(=O)[C@H](Cc2ccccc2)NC(=O)[C@H](CC(=O)O)NC1=O` [A-AIP-III, A-I-N-(C-D-F-L-L)] (H-AINCDFLL; thioester 4-C), the IC50 in test [1] (setting [6]) came out at 26.1 nM; in test [2] (setting [6]) it was 6.4 nM; in test [3] (setting [6]), 27.5 nM; in test [4] (setting [7]), 28.5 nM. The “AgrC-III activity” value in test [3] is on record as “partial agonist”. Also, the “AgrC-IV activity” value in test [4] was “partial agonism”.

As for `CC[C@H](C)[C@H](NC(=O)[C@@H](N)Cc1ccc(O)cc1)C(=O)N[C@@H](CC(N)=O)C(=O)N[C@H]1CSC(=O)[C@H](CC(C)C)NC(=O)[C@H](CC(C)C)NC(=O)[C@H](Cc2ccccc2)NC(=O)[C@H](CC(=O)O)NC1=O` [Y-AIP-III, Y-I-N-(C-D-F-L-L)] (H-YINCDFLL; thioester 4-C), the IC50 turned out to be 8.92 nM in test [1] (setting [6]), 3.75 nM in test [2] (setting [6]), 39.2 nM in test [3] (setting [6]) and 78.2 nM in test [4] (setting [7]). Further, the “AgrC-III activity” value in test [3] is on record as “moderate antagonist”.

`CC[C@H](C)[C@H](N)C(=O)N[C@@H](CC(N)=O)C(=O)N[C@H]1CSC(=O)[C@H](CC(C)C)NC(=O)[C@H](CC(C)C)N(C)C(=O)[C@H](Cc2ccccc2)NC(=O)[C@H](CC(=O)O)NC1=O` [AIP-III N-Me-L6, I-N-(C-D-F-NMeL-L)] (H-INCDF[NMeL]L; thioester 3-C): the IC50 in test [1] (setting [8]) was greater than 1000 nM; in test [3] (setting [8]) it was 162 nM; in test [4] (setting [9]), 81.6 nM. Besides, the “AgrC-IV activity” value in test [4] is “AgrC-IV selective inhibitor”.

Regarding `CC[C@H](C)[C@H](N)C(=O)N[C@@H](CC(N)=O)C(=O)N[C@H]1CSC(=O)[C@H](CC(C)C)N(C)C(=O)[C@H](CC(C)C)NC(=O)[C@H](Cc2ccccc2)NC(=O)[C@H](CC(=O)O)NC1=O` [AIP-III N-Me-L7, I-N-(C-D-F-L-NMeL)] (H-INCDFL[NMeL]; thioester 3-C), the concentration for half-maximal inhibition (IC50) in test [3] (setting [8]) is greater than 1000 nM. Also, the “AgrC-IV IC50” value in test [4] (setting [9]) was “_h”.

As to `CC(=O)N[C@H]1CSC(=O)[C@H](CC(C)C)NC(=O)[C@H](CC(C)C)NC(=O)[C@H](Cc2ccccc2)NC(=O)[C@H](CC(=O)O)NC1=O` [tAIP-III, Ac-(C-D-F-L-L)] (Ac-CDFLL; thioester 1-C), the IC50 in test [1] (setting [6]) is 26.7 nM; in test [2] (setting [6]), 1.53 nM; in test [3] (setting [6]), greater than 200 nM; in test [4] (setting [7]), 25.5 nM. The “AgrC-III activity” value in test [3] is “largely inactive”.

Take `CC(=O)N[C@H]1CSC(=O)[C@H](Cc2ccccc2)NC(=O)[C@H](CC(C)C)NC(=O)CCCCCCCNC1=O` [n7LF] (Ac-C[Aoc]LF; thioester 1-C): the “AgrC-I % Activation” value in test [1] was 54 ± 34%. Moreover, the “AgrC-II % Activation” value in test [2] amounted to 43 ± 25%. For the same molecule, in test [3], the “AgrC-III % Activation” value amounted to 7 ± 3% and the “AgrC-III activity” value was “selective group-III inhibitors”. The “AgrC-IV % Activation” value in test [4] is listed as 98 ± 14%.

As for `CC[C@H](C)[C@H](NC(=O)CN)C(=O)N[C@@H](CC(N)=O)C(=O)N[C@H]1CSC(=O)[C@H](CC(C)C)NC(=O)[C@H](CC(C)C)NC(=O)[C@H](Cc2ccccc2)NC(=O)[C@H](CC(=O)O)NC1=O` [G-AIP-III, G-I-N-(C-D-F-L-L)] (H-GINCDFLL; thioester 4-C), the IC50 in test [1] (setting [6]) is 29.9 nM; in test [2] (setting [6]), 13.7 nM; in test [3] (setting [6]) it was greater than 200 nM; in test [4] (setting [7]) it was 104 nM. For the same molecule, the “AgrC-III activity” value in test [3] is “largely inactive”.

Regarding `CC(C)C[C@@H]1NC(=O)[C@H](Cc2ccccc2)NC(=O)[C@H](CC(=O)O)NC(=O)[C@@H](NC(=O)[C@H](C)NC(=O)[C@H](C)N)CSC(=O)[C@H](CC(C)C)NC1=O` [AIP-III I1A/N2A, A-A-(C-D-F-L-L)] (H-AACDFLL; thioester 3-C), the IC50 in test [1] (setting [6]) was determined as 7.4 nM; in test [2] (setting [6]) it was 4.38 nM; in test [3] (setting [6]) it was 2.6 nM; in test [4] (setting [7]), 5.41 nM.

On to `CC[C@@H](C)C1NC(=O)CN(CC(=O)N[C@H]2CSC(=O)[C@H](CC(C)C)NC(=O)[C@H](CC(C)C)NC(=O)[C@H](Cc3ccccc3)NC(=O)[C@H](CC(=O)O)NC2=O)C1=O` (stereo partly drawn) [AIP-III nN2 DKP, (I-nN)-(C-D-F-L-L)] (X1-CDFLL; thioester 1-C), for which the IC50 in test [1] (setting [8]) came to 126 nM; in test [2] (setting [8]), 4.28 nM; in test [3] (setting [8]) it was 25.1 nM; in test [4] (setting [9]), 84.8 nM. Besides, in test [3], the “AgrC-III activity” value is reported as “AgrC-III inhibitor”.

As to `CC[C@H](C)[C@H](N)C(=O)N[C@@H](CC(N)=O)C(=O)N[C@H]1CSC(=O)[C@H](CC(C)C)NC(=O)CN(CC(C)C)C(=O)[C@H](Cc2ccccc2)NC(=O)[C@H](CC(=O)O)NC1=O` [AIP-III nL6, I-N-(C-D-F-nL-L)] (H-INCDF[Nleu]L; thioester 3-C), the IC50 in test [3] (setting [8]) and in test [4] (setting [9]) was greater than 1000 nM each time.

As for `CC[C@H](C)[C@H](NC)C(=O)N[C@@H](CC(N)=O)C(=O)N[C@H]1CSC(=O)[C@H](CC(C)C)NC(=O)[C@H](CC(C)C)NC(=O)[C@H](Cc2ccccc2)NC(=O)[C@H](CC(=O)O)NC1=O` [AIP-III N-Me-I1, NMeI-N-(C-D-F-L-L)] (H-[NMeI]NCDFLL; thioester 3-C), the IC50 in test [1] (setting [8]) was 60.8 nM; in test [2] (setting [8]) it was 12.8 nM; in test [3] (setting [8]), greater than 1000 nM; in test [4] (setting [9]), 49.2 nM.

As to `CC[C@H](C)[C@H](N)C(=O)N[C@@H](CC(N)=O)C(=O)N[C@H]1CSC(=O)[C@H](CC(C)C)NC(=O)[C@H](CC(C)C)NC(=O)[C@H](Cc2ccccc2)NC(=O)[C@H](CC(=O)O)N(C)C1=O` [AIP-III N-Me-D4, I-N-(C-NMeD-F-L-L)] (H-INC[NMeD]FLL; thioester 3-C), the IC50 was 172 nM in test [1] (setting [8]), 7.98 nM in test [2] (setting [8]), 90.2 nM in test [3] (setting [8]) and 36.9 nM in test [4] (setting [9]).

Regarding `CC[C@H](C)[C@H](N)C(=O)N[C@@H](CC(N)=O)C(=O)N[C@H]1CSC(=O)[C@H](CC(C)C)NC(=O)[C@H](CC(C)C)NC(=O)[C@H](C)NC(=O)[C@H](CC(=O)O)NC1=O` [AIP-III F5A, I-N-(C-D-A-L-L)] (H-INCDALL; thioester 3-C), the IC50 in test [1] (setting [8]) was greater than 200 nM; in test [2] (setting [8]) it was greater than 200 nM; in test [3] (setting [8]), greater than 200 nM; in test [4] (setting [9]), 118 nM; in test [5] it was 44.7 nM.

On to `CC[C@H](C)[C@H](N)C(=O)N[C@@H](CC(N)=O)C(=O)N[C@H]1CSC(=O)[C@H](C)NC(=O)[C@H](CC(C)C)NC(=O)[C@H](Cc2ccccc2)NC(=O)[C@H](CC(=O)O)NC1=O` [AIP-III L7A, I-N-(C-D-F-L-A)] (H-INCDFLA; thioester 3-C), for which the IC50 in test [1] (setting [8]), in test [2] (setting [8]), in test [3] (setting [8]) and in test [4] (setting [9]) was greater than 200 nM each time. The “AgrC-III activity” value in test [3] was “largely inactive”.

As to `CC[C@H](C)[C@H](N)C(=O)N[C@@H](CC(N)=O)C(=O)N[C@H]1CSC(=O)[C@H](CC(C)C)NC(=O)[C@H](C)NC(=O)[C@H](Cc2ccccc2)NC(=O)[C@H](CC(=O)O)NC1=O` [AIP-III L6A, I-N-(C-D-F-A-L)] (H-INCDFAL; thioester 3-C), the IC50 in test [1] (setting [8]), in test [2] (setting [8]), in test [3] (setting [8]) and in test [4] (setting [9]) was greater than 200 nM throughout.

As to `CC[C@H](C)[C@H](NC(C)=O)C(=O)N[C@@H](CC(N)=O)C(=O)N[C@H]1CSC(=O)[C@H](CC(C)C)NC(=O)[C@H](CC(C)C)NC(=O)[C@H](Cc2ccccc2)NC(=O)[C@H](CC(=O)O)NC1=O` [Ac-AIP-III, Ac-I-N-(C-D-F-L-L)] (Ac-INCDFLL; thioester 3-C), the IC50 in test [1] (setting [6]) is greater than 200 nM; in test [2] (setting [6]) it was 44.3 nM; in test [3] (setting [6]), greater than 200 nM; in test [4] (setting [7]) it was greater than 200 nM. Further, the “AgrC-III activity” value in test [3] was “largely inactive”.

Consider `CC(=O)N[C@H]1CSC(=O)[C@H](Cc2ccccc2)NC(=O)[C@H](CC(C)C)NC(=O)CCCNC1=O` [n3LF] (Ac-C[GABA]LF; thioester 1-C), for which the “AgrC-I % Activation” value in test [1] is 17 ± 7%. Also, the “AgrC-I activity described in text” value in test [1] (gfp/fluorescence assay) is on record as “global inhibitor of all four AgrC receptors”. Moreover, in test [2], the “AgrC-II % Activation” value is reported as 28 ± 10%. Besides, in test [2] (gfp/fluorescence assay), the “AgrC-II activity described in text” value was “global inhibitor of all four AgrC receptors”. Also, in test [3], the “AgrC-III % Activation” value is on record as 13 ± 7% and the “AgrC-III activity” value was “global inhibitor of all four AgrC receptors”. In test [4], the “AgrC-IV % Activation” value worked out at 6 ± 3% and the “AgrC-IV activity” value was “global inhibitor of all four AgrC receptors”.

Take `CC[C@H](C)[C@H](N)C(=O)N[C@@H](CC(N)=O)C(=O)N[C@H]1CSC(=O)[C@H](CC(C)C)NC(=O)[C@H](CC(C)C)NC(=O)[C@H](Cc2ccccc2)NC(=O)CN(CC(=O)O)C1=O` [AIP-III nD4, I-N-(C-nD-F-L-L)]: the IC50 in test [1] (setting [8]) stood at 162 nM; in test [2] (setting [8]), 28.3 nM; in test [4] (setting [9]), 53.2 nM.
